From patent US7238694B2, “Rifamycin imino derivatives effective against drug-resistant microbes” (Cumbre Pharmaceuticals, Inc., priority 2004, dated 2007)
Converted amounts (≈) assume the structure as drawn.

What was measured:
Assay type in all cases: cell-based
[1] = system: Streptococcus pneumoniae ATCC6303; assay: MIC, microbroth dilution (NCCLS); details: rifS strain, THY Broth with 1 mg/mL catalase, 5% CO2, 37° C., read-out: MIC
[2] = system: Staphylococcus aureus ATCC29213 rpoB^H418Y; assay: microbe, parasite or virus in culture; details: Staphylococcus aureus, ATCC29213; rifR strain; Cation-Adjusted Mueller-Hinton Broth, 37° C.; read-out: MIC
[3] = system: Streptococcus pyogenes ATCC19615; assay: MIC, microbroth dilution (NCCLS); details: rifS strain, THY Broth, 37° C., read-out: MIC
[4] = system: Staphylococcus aureus MT1222 gyrA^A116E grlB^S80F; assay: microbe, parasite or virus in culture; details: cipR strain, Cation-Adjusted Mueller-Hinton Broth, 37° C., read-out: MIC
[5] = system: Staphylococcus epidermidis ATCC12228; assay: MIC, microbroth dilution (NCCLS); details: rifS strain, Cation-Adjusted Mueller-Hinton Broth, 37° C., read-out: MIC
[6] = system: Haemophilus influenzae ATCC10211; assay: MIC, microbroth dilution (NCCLS); details: rifS strain, BHI Broth with NAD and hematin, 37° C., read-out: MIC
[7] = system: Staphylococcus aureus ATCC29213; assay: MIC, microbroth dilution (NCCLS); details: rifS strain, Cation-Adjusted Mueller-Hinton Broth, 37° C., read-out: MIC

| Structure (SMILES) | MIC [1] [µg/mL] | MIC [2] [µg/mL] | MIC [3] [µg/mL] | MIC [4] [µg/mL] | MIC [5] [µg/mL] | MIC [6] [µg/mL] | MIC [7] [µg/mL] |
| --- | --- | --- | --- | --- | --- | --- | --- |
| CO[C@H]1/C=C/O[C@@]2(C)Oc3c(C)c(O)c4c(O)c(c(/C=N/N5CCC(NC6(C7CCN(c8c(F)cc9c(=O)c(C(=O)O)cn(C%10CC%10)c9c8Cl)C7)CC6)CC5)c(O)c4c3C2=O)NC(=O)/C(C)=C\C=C\[C@H](C)[C@H](O)[C@@H](C)[C@@H](O)[C@@H](C)[C@H](OC(C)=O)[C@@H]1C (mixture of isomers) [Example 45, (R/S)-3-[4-[1-[1-(3-Carboxy-1-cyclopropyl-7-fluoro-8-chloro-4-oxo-4H-quinolin-7-yl)pyrrolidin-3-yl]cycloprop-1-ylamino]piperidin-1-ylaminomethylenyl]rifamycin SV] | 0.008 to 0.06 (≈ 0.0066 to 0.0495 µM) | 0.06 to 16 (≈ 0.0495 to 13.2 µM) | 0.008 to 0.03 (≈ 0.0066 to 0.0248 µM) | 0.008 to 0.125 (≈ 0.0066 to 0.103 µM) | 0.008 to 0.1 (≈ 0.0066 to 0.0825 µM) | 0.125 to 4 (≈ 0.103 to 3.3 µM) | 0.008 to 1 (≈ 0.0066 to 0.825 µM) |
| COc1c(N2CCC(C3(NC4CCN(/N=C/c5c6c(O)c7c(O)c(C)c8c(c7c5O)C(=O)[C@@](C)(O/C=C/[C@H](OC)[C@@H](C)[C@@H](OC(C)=O)[C@H](C)[C@H](O)[C@H](C)[C@@H](O)[C@@H](C)/C=C/C=C(/C)C(=O)N6)O8)CC4)CC3)C2)c(F)cc2c(=O)c(C(=O)O)cn(C3CC3)c12 (mixture of isomers) [Example 46] | 0.008 to 0.06 (≈ 0.00663 to 0.0497 µM) | 0.06 to 16 (≈ 0.0497 to 13.3 µM) | 0.008 to 0.03 (≈ 0.00663 to 0.0248 µM) | 0.008 to 0.125 (≈ 0.00663 to 0.104 µM) | 0.008 to 0.1 (≈ 0.00663 to 0.0828 µM) | 0.125 to 4 (≈ 0.104 to 3.31 µM) | 0.008 to 1 (≈ 0.00663 to 0.828 µM) |
| CO[C@H]1/C=C/O[C@@]2(C)Oc3c(C)c(O)c4c(O)c(c(/C=N/N5CCN(c6cc7c(cc6F)c(=O)c(C(=O)O)cn7C6CC6)CC5)c(O)c4c3C2=O)NC(=O)/C(C)=C\C=C\[C@H](C)[C@H](O)[C@@H](C)[C@@H](O)[C@@H](C)[C@H](OC(C)=O)[C@@H]1C [Example 4, 3-[4-(3-Carboxy-1-cyclopropl-6-fluoro-4-oxo-1,4-dihydroquinolin-7-yl)piperazin-1-yl-aminomethylenyl]rifamycin SV] | 0.008 to 0.06 (≈ 0.00759 to 0.0569 µM) | 0.06 to 16 (≈ 0.0569 to 15.2 µM) | 0.008 to 0.03 (≈ 0.00759 to 0.0285 µM) | 0.008 to 0.125 (≈ 0.00759 to 0.119 µM) | 0.008 to 0.1 (≈ 0.00759 to 0.0949 µM) | 0.125 to 4 (≈ 0.119 to 3.79 µM) | 0.008 to 1 (≈ 0.00759 to 0.949 µM) |
| CO[C@H]1/C=C/O[C@@]2(C)Oc3c(C)c(O)c4c(c3C2=O)C(=O)C(/C=N/N2CCN(c3cc5c(cc3F)c(=O)c(C(=O)O)cn5C3CC3)CC2)=C(NC(=O)/C(C)=C\C=C\[C@H](C)[C@H](O)[C@@H](C)[C@@H](O)[C@@H](C)[C@H](OC(C)=O)[C@@H]1C)C4=O [Example 5, 3-[4-(3-Carboxy-1-cyclopropl-6-fluoro-4-oxo-1,4-dihydroquinolin-7-yl)-piperazin-1-yl-aminomethylenyl]rifamycin S] | 0.008 to 0.06 (≈ 0.0076 to 0.057 µM) | 0.06 to 16 (≈ 0.057 to 15.2 µM) | 0.008 to 0.03 (≈ 0.0076 to 0.0285 µM) | 0.008 to 0.125 (≈ 0.0076 to 0.119 µM) | 0.008 to 0.1 (≈ 0.0076 to 0.095 µM) | 0.125 to 4 (≈ 0.119 to 3.8 µM) | 0.008 to 1 (≈ 0.0076 to 0.95 µM) |
| CO[C@H]1/C=C/O[C@@]2(C)Oc3c(C)c(O)c4c(c3C2=O)C(=O)C(/C=N/N2CCN(c3nc5c(cc3F)c(=O)c(C(=O)O)cn5-c3ccc(F)cc3F)CC2)=C(NC(=O)/C(C)=C\C=C\[C@H](C)[C@H](O)[C@@H](C)[C@@H](O)[C@@H](C)[C@H](OC(C)=O)[C@@H]1C)C4=O [Example 10, 3-[4-[3-Carboxy-1-(2,4-difluoro-phenyl)-6-fluoro-4-oxo-1,4-dihydro-[1,8]naphthyridine-7-yl]-piperazin-1-ylaminomethylenyl]rifamycin S] | 0.008 to 0.06 (≈ 0.00711 to 0.0533 µM) | 0.06 to 16 (≈ 0.0533 to 14.2 µM) | 0.008 to 0.03 (≈ 0.00711 to 0.0267 µM) | 0.008 to 0.125 (≈ 0.00711 to 0.111 µM) | 0.008 to 0.1 (≈ 0.00711 to 0.0889 µM) | 0.125 to 4 (≈ 0.111 to 3.56 µM) | 0.008 to 1 (≈ 0.00711 to 0.889 µM) |
| COc1c(N2CC3CCCN(/N=C/C4=C5NC(=O)/C(C)=C\C=C\[C@H](C)[C@H](O)[C@@H](C)[C@@H](O)[C@@H](C)[C@H](OC(C)=O)[C@H](C)[C@@H](OC)/C=C/O[C@@]6(C)Oc7c(C)c(O)c(c(c7C6=O)C4=O)C5=O)C3C2)c(F)cc2c(=O)c(C(=O)O)cn(C3CC3)c12 (stereo partly drawn) [Example 13, 3-[6-(3-Carboxy-1-cyclopropyl-6-fluoro-8-methoxy-4-oxo-1,4-dihydroquinolin-7-yl)-octahydropyrrolo[3,4-b]pyridin-1-yl-aminomethylenyl]rifamycin S] | 0.008 to 0.06 (≈ 0.00713 to 0.0535 µM) | 0.06 to 16 (≈ 0.0535 to 14.3 µM) | 0.008 to 0.03 (≈ 0.00713 to 0.0267 µM) | 0.008 to 0.125 (≈ 0.00713 to 0.111 µM) | 0.008 to 0.1 (≈ 0.00713 to 0.0891 µM) | 0.125 to 4 (≈ 0.111 to 3.56 µM) | 0.008 to 1 (≈ 0.00713 to 0.891 µM) |
